16 molecules from patent US4656184A, “2-(N-substituted hydrazone), thiazoles useful as anti-inflammatories” (priority 1982, dated 1987) can be followed below.

One assay concerns prostanoids. The assay can be described thus: Inhibition of the metabolism of 14C-arachidonate in the blood platelets of rabbits: prostanoids route (TxB2, HHT). It is filed as cell-based. The conditions noted are these: rabbit blood platelets. As to the method: (§1) 1.2. Inhibition of the metabolism of
(§2) ^14 C-Arachidonate in the blood platelets of rabbits
(§3) Preparation of a platelet-rich plasma (PRP)
(§4) A 12 ml blood sample is taken, by the intracardiac route, on ACD (anticoagulant consisting of an aqueous solution containing 0.27 g citric acid, 0.5 g disodium citrate and 0.02 g glucose per 20 ml water), at a rate of 1 volume ACD per 6 volumes blood. The blood is centrifuged at 200 g for 10 minutes and the supernatant (PRP) is collected. It is again centrifuged at 1500 g for 15 minutes. The blood-platelet sediment is washed with Buffer I (NaCl: 8 g/l, Tris: 1.21 g/l, KCl: 0.2 g/l, Gelatin: 2.5 g/l; the material is heated at 90° C. to dissolve the gelatin, after which are added glucose: 1 g/l, and N,N'-ethyleneglycol bis(β-aminoethyl ether,)tetraacetic acid or EGTA: 0.075 g/l). The suspension is centrifuged at 1500 g for 10 minutes, and the sediment is taken up into Buffer II (NaCl: 8 g/l, Tris: 1.21 g/l, KCl: 0.2 g/l, CaCl2 : 0.145 g/l, MgCl2 0.2 g/l, gelatin: 2.5 g/l; this material is heated to 90° C., after which glucose (1 g/l) is added, and the pH is adjusted to a value of 7.4 with 0.1 N HCl),
(§5) Metabolism of ^14 C-Arachidonate
(§6) The blood-platelet suspension (0.4 ml/tube) is pre-incubated at 37° C. for 15 minutes, either with 10 μl DMSO (reference), or with varying concentrations of products to be treated dissolved in 10 μl DMSO.
(§7) The incubation is effected in the presence of ^14 C-Arachidonate (1 μg, 0.2 μCi) distributed within 0.1 ml Buffer II. It is blocked after 15 minutes by means of 50 μl citric acid and 250 μl saturated NaCl.

The target of assay [1] is T1, 5-lipoxygenase of the peritoneal leukocytes of rabbits (PMNs) (Oryctolagus cuniculus, UniProt G1SNX0).
T1 construct: metabolism of ^14 C-AA in the peritoneal PMNs of rabbits; endogenous in cells; host or cells: rabbit peritoneal polymorphonuclear leukocytes (suspension)
T1 sequence (G1SNX0 1-674): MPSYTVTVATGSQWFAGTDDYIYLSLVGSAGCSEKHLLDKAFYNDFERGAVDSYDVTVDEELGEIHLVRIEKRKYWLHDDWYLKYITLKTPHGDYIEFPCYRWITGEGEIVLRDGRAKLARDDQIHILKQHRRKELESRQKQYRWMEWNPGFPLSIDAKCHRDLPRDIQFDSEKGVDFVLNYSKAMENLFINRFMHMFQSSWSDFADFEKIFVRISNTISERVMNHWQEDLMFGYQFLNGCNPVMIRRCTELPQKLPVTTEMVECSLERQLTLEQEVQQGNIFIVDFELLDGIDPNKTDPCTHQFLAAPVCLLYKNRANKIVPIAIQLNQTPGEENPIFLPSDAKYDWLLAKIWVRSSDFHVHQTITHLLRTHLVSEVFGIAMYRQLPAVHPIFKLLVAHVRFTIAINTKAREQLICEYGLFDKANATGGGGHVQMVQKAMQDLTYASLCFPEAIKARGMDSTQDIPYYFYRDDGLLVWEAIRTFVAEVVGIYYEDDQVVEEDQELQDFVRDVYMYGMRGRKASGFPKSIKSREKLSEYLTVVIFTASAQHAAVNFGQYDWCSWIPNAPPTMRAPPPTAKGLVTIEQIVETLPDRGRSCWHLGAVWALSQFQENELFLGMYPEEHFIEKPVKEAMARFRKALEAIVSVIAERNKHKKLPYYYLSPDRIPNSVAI
The assay can be described thus: Inhibition of the 5-lipoxygenase of the peritoneal leukocytes of rabbits (PMNs), metabolism of 14C-arachidonate. It counts as cell-based. As to conditions: rabbit peritoneal PMNs, n.i. = no inhibition. On the procedure:
1.1. Inhibition of the 5-lipoxygenase of the peritoneal leukocytes of rabbits (PMNs)
(§8) Preparation of a suspension of rabbit PMNs
(§9) The peritoneal leukocytes of rabbits are obtained and prepared according to the technique described by P. Borgeat and B. Samuelson (J. Biol. Chem. 254, n° 8, p. 2643, 1979).
as §5
(§10) The incubation and extraction methods are those described by J. Y. Vanderhoek & co-workers (J. Biol. Chem. […], 21, 10064, 1980).
(§11) The percent inhibition of the 5-lipoxygenase is determined as a function of the concentration of each compound. The concentration of product that inhibits the metabolism by a factor of 50% (IC50) is inferred from those curves.

The test system of another assay is 15 HETE. The assay can be described thus: Metabolism of 14C-arachidonate in rabbit peritoneal PMNs: 15 HETE. It counts as cell-based. The conditions noted are these: 15 HETE formation, n.i. = no inhibition. As to the method:
as §8, §9, §5, §10, §11

A further assay addresses T2, 12-lipoxygenase (Oryctolagus cuniculus, UniProt G1U492).
T2 construct: metabolism of ^14 C-Arachidonate in the blood platelets of rabbits; endogenous in cells; host or cells: washed rabbit blood platelets (from platelet-rich plasma)
T2 sequence (G1U492 1-663): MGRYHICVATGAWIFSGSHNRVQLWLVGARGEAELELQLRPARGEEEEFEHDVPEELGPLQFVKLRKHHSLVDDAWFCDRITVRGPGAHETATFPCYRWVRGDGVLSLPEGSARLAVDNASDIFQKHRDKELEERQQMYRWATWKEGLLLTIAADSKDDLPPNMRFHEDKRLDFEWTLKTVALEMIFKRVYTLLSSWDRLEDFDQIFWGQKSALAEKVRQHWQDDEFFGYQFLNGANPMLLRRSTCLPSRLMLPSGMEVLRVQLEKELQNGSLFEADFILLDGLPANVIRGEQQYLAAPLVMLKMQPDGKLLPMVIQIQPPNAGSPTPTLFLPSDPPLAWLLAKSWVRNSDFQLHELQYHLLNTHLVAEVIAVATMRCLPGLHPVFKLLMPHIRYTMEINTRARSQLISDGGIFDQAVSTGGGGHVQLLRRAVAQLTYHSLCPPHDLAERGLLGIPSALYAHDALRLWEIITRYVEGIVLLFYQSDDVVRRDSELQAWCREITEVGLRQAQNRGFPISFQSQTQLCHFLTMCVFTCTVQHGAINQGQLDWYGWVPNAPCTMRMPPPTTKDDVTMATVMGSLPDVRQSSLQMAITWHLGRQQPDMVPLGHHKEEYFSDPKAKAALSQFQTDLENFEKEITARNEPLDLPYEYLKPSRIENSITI
Nature of the assay: Inhibition of the metabolism of 14C-arachidonate in the blood platelets of rabbits: 12-lipoxygenase route (12-HETE). It counts as cell-based. As to conditions: rabbit blood platelets; for IC50 in the blood platelets, 12 HETE / IC50: n.i. = no inhibition, 12 HETE. As to the method: as §1, §2, §3, §4, §5, §6, §7

The subject of the next assay is edema of the ear in rats. Nature of the assay: Cutaneous anti-inflammatory activity: inhibition of the edema of the ear in rats following topic administration. It is filed as in vivo. As to conditions: rat ear edema, topical. On the procedure: Cutaneous anti-inflammatory activity determined by the inhibition of the edema of the ear in rats following topic administration. This activity is determined by means of the method according to G. Tonelli and co-workers (Endocrinology, 1965, 77, 625-634). The effect of various concentrations of each compound is determined in at least seven rats. Inflammation is inhibited by a factor of 50% at the following concentrations: […]

[2] abbreviates: HHT, read-out: IC50 in the blood platelets, HHT.
Setting [3] is: thromboxane B2, read-out: IC50 in the blood platelets, T × B2.
Setting [4] is: 5 HETE formation, read-out: IC50 in the PMNs, 5 HETE.
[5] abbreviates: LTB4 formation, read-out: IC50 in the PMNs, LTB4.
[6] abbreviates: Oryctolagus cuniculus, Platelet, HHT, read-out: IC50 in the blood platelets, HHT.
Where [7] appears, read: Oryctolagus cuniculus, Platelet, thromboxane B2, read-out: IC50 in the blood platelets, T × B2.

Read-outs that look alike come from different tables or passages of the source.

The term IC50 denotes the midpoint of a concentration-inhibition curve.

Turning to `c1ccc2c(c1)CCCC2=NNc1nccs1` [Example 7a], the IC50 in the assay with prostanoids (setting [2]) came to 15 µM; with prostanoids (setting [3]), 5 µM; in assay [1] (setting [4]) it was 5 µM; in the assay on 15 HETE, 2 µM. The “IC50 in the blood platelets, 12 HETE” value on 12-lipoxygenase is given as “n.i”.

On to `CC(=NNc1nccs1)c1cccs1` [Example 3d], for which the IC50 is 50 µM in the assay with prostanoids (setting [2]); 10 µM in the assay on prostanoids (setting [3]); less than 2 µM in assay [1] (setting [4]); 2 µM in assay [1] (setting [5]); 22 µM against 12-lipoxygenase. The “IC50 in the PMNs, 15 HETE” value in the assay on 15 HETE is “n.i”.

`O=C(O)c1cc(=NNc2nccs2)c2ccccc2o1` [Example 20]: the IC50 in the assay with prostanoids (setting [6]) amounted to 20 µM; in the assay with prostanoids (setting [7]), 15 µM. In assay [1] (5 HETE formation), the “IC50 in the PMNs, 5 HETE” value is on record as “n.i”. Besides, the “IC50 in the PMNs, LTB4” value in assay [1] (LTB4 formation) is on record as “n.i”. Also, on 12-lipoxygenase, the “IC50 in the blood platelets, 12 HETE” value is given as “n.i”.

Consider `CC(=NNc1nccs1)c1ccccc1N` [Example 15], for which the IC50 was 25 µM in the assay on prostanoids (setting [6]), less than 25 µM with prostanoids (setting [7]), less than 25 µM in assay [1] (setting [4]) and less than 25 µM in assay [1] (setting [5]). The “IC50 in the blood platelets, 12 HETE” value against 12-lipoxygenase was “n.i”.

With `C[C@H](Cc1ccc(O)c(O)c1)[C@@H](C)Cc1ccc(O)c(O)c1` [NDGA, Nordihydroguaiaretic acid], the entries for the “concentration at which inflammation is inhibited by a factor of 50%” value in the assay with edema of the ear in rats (at least seven rats) and in the assay on edema of the ear in rats (molar value in parentheses) were 12.5 mg/mL and 41 µmol/mL, respectively.

Consider `C[C@@H]1C[C@H]2[C@@H]3CCC4=CC(=O)C=C[C@]4(C)[C@@]3(F)[C@@H](O)C[C@]2(C)[C@@]1(O)C(=O)CO` [Dexamethasone], for which the “concentration at which inflammation is inhibited by a factor of 50%” value worked out at 1 mg/mL with edema of the ear in rats (at least seven rats) and 2.5 µmol/mL in the assay on edema of the ear in rats (molar value in parentheses).

In the case of `CN1CCN(C(=NNc2ccccc2)c2ccccc2)CC1` [Example 23], the IC50 (with prostanoids (setting [6]); in the assay with prostanoids (setting [7]); in assay [1] (setting [4]); in assay [1] (setting [5]); against 12-lipoxygenase) was 25 µM each time.

As to `CCOC(=O)CCCC(C)=NNc1nccs1` [Example 1a], the IC50 was determined as 50 µM with prostanoids (setting [2]), 12 µM in the assay with prostanoids (setting [3]) and 13 µM in assay [1] (setting [5]). The “IC50 in the blood platelets, 12 HETE” value at 12-lipoxygenase was “n.i”.

`NC(=NNc1ccccc1)c1ccccc1` [Example 21]: the IC50 in the assay with prostanoids (setting [6]) was determined as 10 µM; in the assay on prostanoids (setting [7]), 10 µM; in assay [1] (setting [4]), 20 µM; in assay [1] (setting [5]), 10 µM. Besides, the “IC50 in the blood platelets, 12 HETE” value at 12-lipoxygenase is “n.i”.

Take `CC(=NNc1nccs1)c1cccs1` [Example 3]: the IC50 in the assay with prostanoids (setting [2]) stood at 20 µM; in the assay on prostanoids (setting [3]), 50 µM; in assay [1] (setting [4]), 18 µM; in assay [1] (setting [5]), 7 µM; against 12-lipoxygenase, 3 µM. The “IC50 in the PMNs, 15 HETE” value in the assay with 15 HETE is reported as “n.i”.

Regarding `CCOC(=O)CCCC(C)=NNc1nccs1` [Example 1], the IC50 is greater than 50 µM with prostanoids (setting [6]); greater than 50 µM in the assay with prostanoids (setting [3]); less than 2 µM in assay [1] (setting [4]); less than 2 µM in assay [1] (setting [5]); greater than 50 µM with 15 HETE (Oryctolagus cuniculus); greater than 50 µM against 12-lipoxygenase.

As to `CC(=O)Oc1ccccc1C(=O)O` [Aspirin], the “concentration at which inflammation is inhibited by a factor of 50%” value was 70 mg/mL in the assay on edema of the ear in rats (at least seven rats) and 233 µmol/mL in the assay on edema of the ear in rats (molar value in parentheses). For the same molecule, the “inhibition of the 12-lipoxygenase route (chromatographic profile, FIG. 3b)” value on 12-lipoxygenase is reported as “does not inhibit the 12-lipoxygenase route”.

For the molecule `c1ccc2c(c1)CCCC2=NNc1nccs1` [Example 7], the IC50 stood at 16 µM with prostanoids (setting [6]); 10 µM with prostanoids (setting [7]); 6 µM in assay [1] (setting [4]); 8 µM in assay [1] (setting [5]); 2 µM in the assay with 15 HETE (Oryctolagus cuniculus); 40 µM at 12-lipoxygenase.

For `CC(Cn1ccnc1)=NNc1nccs1` [Example 4], the IC50 was greater than 50 µM in the assay with prostanoids (setting [6]), greater than 50 µM in the assay on prostanoids (setting [7]), 2 µM with 15 HETE (Oryctolagus cuniculus) and greater than 50 µM against 12-lipoxygenase. In addition, the “IC50 in the PMNs, 5 HETE” value in assay [1] (5 HETE formation) was “n.i”. Further, the “IC50 in the PMNs, LTB4” value in assay [1] (LTB4 formation) is “n.i”.

Turning to `CC(=NNc1nccs1)c1ccco1` [Example 3c], the IC50 with prostanoids (setting [6]) is greater than 50 µM; with prostanoids (setting [7]) it was 10 µM; in assay [1] (setting [4]), 10 µM; in assay [1] (setting [5]) it was 2 µM; with 15 HETE (Oryctolagus cuniculus), greater than 50 µM; against 12-lipoxygenase it was 14 µM.

In the case of `CC(=NNc1nccs1)c1cccs1` [Example 3a], the IC50 in the assay on prostanoids (setting [2]) worked out at 21 µM; in the assay on prostanoids (setting [3]), 13 µM; in assay [1] (setting [4]), 15 µM; with 15 HETE (Oryctolagus cuniculus) it was 40 µM; against 12-lipoxygenase it was 30 µM.
